In patent publication EP4144350B1, “TREATMENT OR PREVENTION OF VASCULAR MALFORMATION” (Universitätsmedizin Greifswald, priority 2021, dated 2023):

Tested on: CCM3^-/- BMECs
Experiment: hiPSC-derived BMEC co-culture, fluorescent imaging of clonal expansion
Format: cell-based, human
Details: 10 µM for six days, released, another six days under standard conditions
Protocol: Fluorescently tagged human induced pluripotent stem cells (Coriell Institute, Camden, NJ, USA) were maintained at 37 °C and 5 % CO2 in Essential 8 Flex medium (Thermo Fisher Scientific, Waltham, MA, USA) on plates coated with growth factor reduced matrigel (Corning Inc., Corning, NY, USA). Cells were passaged with 0.5 mM EDTA (Thermo Fisher Scientific). The following endogenously tagged cell lines as part of the Allen Cell Collection (Coriell Institute) were used: AICS-0036-006:WTC-mEGFP-Safe harbor locus (AAVS1)-cl6 and AICS-0054-091:WTC-mTagRFPT-CAAX-Safe harbor locus (AAVS1)-cl91.
CCM3^+/+ AICS-0054 hiPSCs, CCM3^+/+ and CCM3^-/- AICS-0036 hiPSCS were differentiated into human brain microvacular endothelial-like cells (hBMECs). Briefly, 158,000 cells were seeded in Essential 8 Flex medium containing 10 µM Y-27632 on growth factor reduced Matrigel-coated 6-well plates. After 24 h, differentiation was initiated by substitution of Essential 8 Flex with Essential 6 medium (Thermo Fisher Scientific). Medium was changed daily for 4 days. […] The ratio of EGFP-tagged AICS-0036 cells compared to all cells was determined using the ImageJ software. […]

## CN1CCN(C(=O)/C=C/c2ccc([N+](=O)[O-])o2)CC1 [NSC59984, (E)-1-(4-methylpiperazin-1-yl)-3-(5-nitrofuran-2yl)prop-2-en-1-one]
  Clonal expansion of CCM3^-/- BMECs in co-culture: blocked the clonal expansion of CCM3^-/- BMECs in co-culture
